The results in this text go back to ChEMBL document CHEMBL3875144, “Novel fluorinated pyrrolomycins as potent anti-staphylococcal biofilm agents: Design, synthesis, pharmacokinetics and antibacterial activities” (Eur J Med Chem, 2016).

Data set [1] in a line: Antibacterial activity against methicillin-resistant Staphylococcus aureus USA300 JE2 incubated for 20 to 24 hrs by broth microdilution assay. It counts as functional, Staphylococcus aureus subsp. aureus USA300. (Dilution methods test growth across graded concentrations, often in twofold steps.)
Data set [2] can be described thus: Cytotoxicity against human HeLa cells assessed as decrease in cell viability measured after 24 hrs by MTS assay. Format: toxicity, cell-based. Background: Tetrazolium dyes change colour on reduction, which living cells bring about.
A short description of data set [3]: Selectivity index, ratio of IC50 for cytotoxicity against human HeLa cells to MIC for antibacterial activity against methicillin-resistant Staphylococcus aureus USA300 JE2. Format: toxicity, cell-based. Conditions: read-out: Selectivity Index.
Data set [4] in a line: Bactericidal activity against methicillin-resistant Staphylococcus aureus USA300 JE2 incubated up to 24 hrs. Conditions: JE2, 24 h. It counts as functional, Staphylococcus aureus subsp. aureus USA300.
For data set [5], the system named is Staphylococcus aureus subsp. aureus USA300. As to the kind of experiment: Bactericidal activity against methicillin-resistant Staphylococcus aureus USA300 JE2 at 8 ug/ml incubated up to 24 hrs relative to control. It counts as functional.
Data set [6] shares this test system. Briefly: Antibiofilm activity against methicillin-resistant Staphylococcus aureus USA300 JE2 at 32 ug/ml measured at 24 hrs post dose relative to control. It counts as functional.
Data set [7] shares this test system. Briefly: Antibiofilm activity against methicillin-resistant Staphylococcus aureus USA300 JE2 at 32 ug/ml measured at 48 hrs post dose relative to control. It counts as functional.
The test system is the same in data set [8]. As to the kind of experiment: Antibiofilm activity against methicillin-resistant Staphylococcus aureus USA300 JE2 assessed as disruption of preformed biofilms at 8 ug/ml within 5 days. It counts as functional.
Data set [9] shares this test system. As to the kind of experiment: Antibiofilm activity against methicillin-resistant Staphylococcus aureus USA300 JE2 at 8 ug/ml measured at 24 hrs post dose relative to control. Format: functional.
Data set [10] shares this test system. Briefly: Antibiofilm activity against methicillin-resistant Staphylococcus aureus USA300 JE2 at 8 ug/ml measured at 48 hrs post dose relative to control. It counts as functional.
Data set [11] can be described thus: Tmax in Balc/c mouse at 10 mg/kg administered via oral gavage by LC-MS/MS method. Format: ADME, organism-based. Conditions: in vivo.
The nature of data set [12]: Plasma concentration in Balc/c mouse at 1 mg/kg, iv up to 72 hrs by LC-MS/MS method. It counts as ADME, organism-based.
Data set [13] is described as follows: Plasma concentration in Balc/c mouse at 10 mg/kg administered via oral gavage up to 72 hrs by LC-MS/MS method. Format: ADME, organism-based.

In brackets after ≈: the same amount, converted by molar mass. Activity calls are given as the source filed them. The rule behind the calls is not given here.

As a reminder, the MIC is the least concentration at which growth counts as inhibited. Low values mean a more susceptible organism, high ones a less susceptible organism. As a reminder, the IC50 is the concentration at which inhibition is half-maximal. The MBC is the lowest tested concentration that kills the bacteria rather than only halting them. A higher MBC goes with weaker bactericidal potency. A word on the Tmax: it is the time at which the peak concentration occurs.

Compound `O=C(c1ccccc1O)c1[nH]c(Cl)c(Cl)c1-n1c(C(=O)c2cc(F)ccc2O)cc(Cl)c1Cl` showed an MIC in data set [1] of 0.19 µg/mL (≈ 0.36 µM). For the same compound, in data set [2], the IC50 at 24 h is above 52.8 µM. Moreover, the selectivity ratio in data set [3] was above 280.

In [1], `O=C(c1cc(F)cc(F)c1O)c1[nH]c(Br)c(Br)c1Br` registered an MIC of 0.17 µg/mL (≈ 0.37 µM). In data set [2], the IC50 at 24 h was above 46 µM. For the same compound, the selectivity ratio in data set [3] was above 275.

Consider `O=C(c1ccccc1O)c1[nH]c(Cl)c(Cl)c1-n1c(C(=O)c2ccc(Cl)cc2O)cc(Cl)c1Cl`, for which the MIC in data set [1] was found to be 0.078 µg/mL (≈ 0.143 µM). Further, in data set [2], the IC50 at 24 h was above 40.9 µM. In addition, the selectivity ratio in [3] is above 524.

As for `O=C(c1cc(Br)c(Br)[nH]1)c1cc(Cl)cc(Cl)c1O`, in data set [1], it took 0.073 µg/mL (≈ 0.176 µM) to inhibit growth (MIC). Also, the concentration for half-maximal inhibition (IC50) at 24 h in [2] was above 41.4 µM. Besides, the selectivity ratio in data set [3] is above 567. Besides, the MBC in data set [4] came out at 8 µg/mL (≈ 19.3 µM). Besides, the Activity in data set [5] was 92.5%.

For the compound `O=C(c1ccc[nH]1)c1cc(Cl)cc(Cl)c1O`, the MIC in [1] was above 4 µg/mL.

In turn, `CN[C@H](CC(C)C)C(=O)N[C@H]1C(=O)N[C@@H](CC(N)=O)C(=O)N[C@H]2C(=O)N[C@H]3C(=O)N[C@H](C(=O)N[C@H](C(=O)O)c4cc(O)cc(O)c4-c4cc3ccc4O)[C@H](O)c3ccc(c(Cl)c3)Oc3cc2cc(c3O[C@@H]2O[C@H](CO)[C@@H](O)[C@H](O)[C@H]2O[C@H]2C[C@](C)(N)[C@H](O)[C@H](C)O2)Oc2ccc(cc2Cl)[C@H]1O` [VANCOMYCIN] gave an MIC in data set [1] of 2 µg/mL (≈ 1.38 µM). In data set [4], the MBC came out at 8 µg/mL (≈ 5.52 µM). Besides, the results for the Activity in data set [6] and in [7] were 11% and 39%, respectively.

`COc1c(F)cc(F)cc1C(=O)c1[nH]c(Br)c(Br)c1Br` returned an MIC in [1] of 3 µg/mL (≈ 6.33 µM).

Compound `O=C(c1cc(Br)c(F)[nH]1)c1cc(Cl)cc(Cl)c1O` displayed an MIC in [1] of 0.073 µg/mL (≈ 0.207 µM). In [2], the 50% inhibitory concentration (IC50) at 24 h is above 35.3 µM. The selectivity ratio in data set [3] is above 484. This compound showed an MBC in [4] of 4 µg/mL (≈ 11.3 µM). In data set [8], the outcome was Active. The Activity in data set [9] is 84%; in data set [10], 97%. Further, in [11], the Tmax amounted to 15 min. Also, the concentration at 72 h in data set [12] and in data set [13] was at least 0.8 ng/mL each time.

The compound `COc1c(F)cc(F)cc1C(=O)c1ccc[nH]1` returned an MIC in data set [1] above 4 µg/mL.

In [1], `COc1c(F)cc(F)cc1C(=O)c1c(Br)c(Br)c(Br)n1C` yielded an MIC above 4 µg/mL.

For the compound `O=C(c1ccc[nH]1)c1cc(F)cc(F)c1O`, in data set [1], the MIC was above 4 µg/mL.

With `O=C(c1cc(Cl)cc(Cl)c1O)c1[nH]c(F)c(Br)c1Br`, in data set [1], it took 0.19 µg/mL (≈ 0.44 µM) to inhibit growth (MIC). The IC50 at 24 h in [2] is above 43.2 µM. Besides, in [3], the selectivity ratio was above 229.

With `O=C(c1cc(Br)c[nH]1)c1cc(Cl)cc(Cl)c1O`, the MIC in data set [1] was above 4 µg/mL.

Take `Cn1c(Br)c(Br)c(Br)c1C(=O)c1cc(F)cc(F)c1O`: the MIC in data set [1] was above 4 µg/mL.
